How the values were obtained:
Assay type in all cases: cell-based
[1] = molecular target: T1, alpha2A receptor (Homo sapiens, UniProt P08913); test: RSAT assay, alpha2A receptor; details: for Alpha 2A intrinsic activity (efficacy): ratio of maximal effect to that of standard full agonist brimonidine (UK14304), value in parentheses; for EC50: transfected NIH-3T3 cells with Gq/i5, ND = not determinable at concentrations less than 10 micromolar, read-out: Alpha 2A potency (EC50)
T1 construct: expressed in transfected cells; host or cells: NIH-3T3 cells
T1 sequence (P08913 1-465): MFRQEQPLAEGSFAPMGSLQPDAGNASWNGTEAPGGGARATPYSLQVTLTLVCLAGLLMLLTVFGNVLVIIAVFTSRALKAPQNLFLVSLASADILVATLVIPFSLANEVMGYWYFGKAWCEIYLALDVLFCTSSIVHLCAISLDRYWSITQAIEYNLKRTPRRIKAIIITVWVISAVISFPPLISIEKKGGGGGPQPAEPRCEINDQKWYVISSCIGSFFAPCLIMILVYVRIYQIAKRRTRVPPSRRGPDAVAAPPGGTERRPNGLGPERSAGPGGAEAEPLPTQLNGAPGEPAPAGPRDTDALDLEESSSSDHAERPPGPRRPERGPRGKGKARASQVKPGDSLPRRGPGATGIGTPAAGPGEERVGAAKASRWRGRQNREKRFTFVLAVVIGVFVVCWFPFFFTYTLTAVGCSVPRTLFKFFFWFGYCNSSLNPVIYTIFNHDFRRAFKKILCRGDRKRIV
Procedure: (§1) Receptor Selection and Amplification Technology (RSAT) Assay
(§2) The RSAT assay measures a receptor-mediated loss of contact inhibition that results in selective proliferation of receptor-containing cells in a mixed population of confluent cells. The increase in cell number is assessed with an appropriate transfected marker gene such as β-galactosidase, the activity of which can be easily measured in a 96-well format. Receptors that activate the G protein, Gq, elicit this response. Alpha2 receptors, which normally couple to Gi, activate the RSAT response when coexpressed with a hybrid Gq protein that has a Gi receptor recognition domain, called Gq/i5.
(§3) NIH-3T3 cells are plated at a density of 2×10^6 cells in 15 cm dishes and maintained in Dulbecco's modified Eagle's medium supplemented with 10% calf serum. One day later, cells are cotransfected by calcium phosphate precipitation with mammalian expression plasmids encoding p-SV-β-galactosidase (5-10 μg), receptor (1-2 μg) and G protein (1-2 μg). 40 μg salmon sperm DNA may also be included in the transfection mixture. Fresh media is added on the following day and 1-2 days later, cells are harvested and frozen in 50 assay aliquots. Cells are thawed and 100 μl added to 100 μl aliquots of various concentrations of drugs in triplicate in 96-well dishes. Incubations continue 72-96 hr at 37° C. After washing with phosphate-buffered saline, β-galactosidase enzyme activity is determined by adding 200 μl of the chromogenic substrate (consisting of 3.5 mM o-nitrophenyl-β-D-galactopyranoside and 0.5% nonidet P-40 in phosphate buffered saline), incubating overnight at 30° C. and measuring optical density at 420 nm. The absorbance is a measure of enzyme activity, which depends on cell number and reflects a receptor-mediated cell proliferation. The efficacy or intrinsic activity is calculated as a ratio of the maximal effect of the drug to the maximal effect of a standard full agonist for each receptor subtype. Brimonidine, also called UK14304, the chemical structure of which is shown below, is used as the standard agonist for the alpha2A, alpha2B and alpha2C receptors. The EC50 is the concentration at which the drug effect is half of its maximal effect.
(§4) The results of the RSAT assay with several exemplary compounds of the invention are disclosed in Table 1 above together with the chemical formulas of these exemplary compounds. EC50 values are nanomolar. ND stands for “not determinable” at concentrations less than 10 micromolar. IA stands for “intrinsic activity.”

[2] = molecular target: T2, alpha2C receptor (Homo sapiens, UniProt P18825); test: RSAT assay, alpha2C receptor; details: for Alpha 2C intrinsic activity (efficacy): ratio of maximal effect to that of standard full agonist brimonidine (UK14304), value in parentheses; for EC50: transfected NIH-3T3 cells with Gq/i5, ND = not determinable at concentrations less than 10 micromolar, read-out: Alpha 2C potency (EC50)
T2 construct: expressed in transfected cells; host or cells: NIH-3T3 cells
T2 sequence (P18825 1-462): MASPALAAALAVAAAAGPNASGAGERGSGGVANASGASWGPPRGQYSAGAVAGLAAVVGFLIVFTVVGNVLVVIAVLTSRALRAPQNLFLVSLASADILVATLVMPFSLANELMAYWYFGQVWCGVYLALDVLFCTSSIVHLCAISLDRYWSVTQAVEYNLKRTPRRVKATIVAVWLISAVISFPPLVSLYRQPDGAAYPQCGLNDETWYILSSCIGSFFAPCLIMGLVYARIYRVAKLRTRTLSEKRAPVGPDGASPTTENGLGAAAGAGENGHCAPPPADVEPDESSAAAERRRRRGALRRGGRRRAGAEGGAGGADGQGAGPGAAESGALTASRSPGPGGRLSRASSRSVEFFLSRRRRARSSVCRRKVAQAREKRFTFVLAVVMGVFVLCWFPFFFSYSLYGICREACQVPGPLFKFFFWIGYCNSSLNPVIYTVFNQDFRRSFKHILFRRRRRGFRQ
Procedure: as §1, §2, §3, §4

[3] = molecular target: T3, alpha2B receptor (Homo sapiens, UniProt P18089); test: RSAT assay, alpha2B receptor; details: for Alpha 2B intrinsic activity (efficacy): ratio of maximal effect to that of standard full agonist brimonidine (UK14304), value in parentheses; for EC50: transfected NIH-3T3 cells with Gq/i5, ND = not determinable at concentrations less than 10 micromolar, read-out: Alpha 2B potency (EC50)
T3 construct: expressed in transfected cells; host or cells: NIH-3T3 cells
T3 sequence (P18089 1-450): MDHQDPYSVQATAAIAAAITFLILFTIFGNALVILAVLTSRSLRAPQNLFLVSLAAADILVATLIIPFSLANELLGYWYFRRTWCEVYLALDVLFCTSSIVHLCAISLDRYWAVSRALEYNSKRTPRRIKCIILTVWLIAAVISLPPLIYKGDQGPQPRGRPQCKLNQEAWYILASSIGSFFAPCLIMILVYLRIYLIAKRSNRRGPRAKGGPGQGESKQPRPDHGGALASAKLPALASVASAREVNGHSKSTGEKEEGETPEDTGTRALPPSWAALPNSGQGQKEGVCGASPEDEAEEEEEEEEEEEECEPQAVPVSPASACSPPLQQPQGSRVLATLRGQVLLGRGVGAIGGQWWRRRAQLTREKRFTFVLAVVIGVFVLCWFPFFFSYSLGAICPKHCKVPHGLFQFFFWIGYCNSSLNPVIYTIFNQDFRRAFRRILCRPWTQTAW
Procedure: as §1, §2, §3, §4

Row | Structure (SMILES) | Alpha 2A intrinsic activity (efficacy) [1] | EC50 [1] | Alpha 2C intrinsic activity (efficacy) [2] | EC50 [2] | Alpha 2B intrinsic activity (efficacy) [3] | EC50 [3]
1 | c1ccc(C(c2cnc[nH]2)c2cccc3cccnc23)nc1 (stereo not shown) | 0.15 | > 10000 nM | 0.60 | 275 nM | 1.00 | 22 nM
2 | c1ccc(C(c2cnc[nH]2)c2cccc3ncccc23)nc1 (stereo not shown) | 0.13 | > 10000 nM | 0.22 | > 10000 nM | 0.45 | 348 nM
3 | c1cncc(C(c2cnc[nH]2)c2cccc3ncccc23)c1 (stereo not shown) | 0.12 | > 10000 nM | 0.33 | > 10000 nM | 0.90 | 231 nM
4 | c1cc(C(c2ccncc2)c2cnc[nH]2)c2cccnc2c1 (stereo not shown) | – | > 10000 nM | 0.18 | > 10000 nM | 0.65 | 771 nM
5 | c1cncc(C(c2cnc[nH]2)c2cccc3cccnc23)c1 (stereo not shown) | 0.50 | 576 nM | 1.16 | 123 nM | 1.29 | 2.15 nM
6 | c1ccc(C(c2cnc[nH]2)c2cccc3c2OCC3)nc1 (stereo not shown) | 0.23 | – | 0.86 | 159 nM | 0.87 | 9.12 nM
7 | c1cncc(C(c2cnc[nH]2)c2cccc3c2OCC3)c1 (stereo not shown) | 0.46 | 430 nM | 1.12 | 157 nM | 1.13 | 10 nM

Source: patent US8383646B2, “Therapeutic ((bicylicheteroaryl)imidazolyl) methylheteroaryl compounds” (Allergan, Inc., priority 2007, dated 2013)
